Laboratory results taken from patent US8592442B2, “Nilotinib HCl crystalline forms” (Teva Pharmaceutical Industries Ltd., priority 2008, dated 2013).
Counter-ions that a name gives are not always drawn.

Key:
[1] = Polymorphic conversion when heated; assay type: physicochemical
[2] = as described in WO '870; cited from earlier work
[3] = as described in WO '870; cited from earlier work; remark: listed apart in the source

## Cc1cn(-c2cc(NC(=O)c3ccc(C)c(Nc4nccc(-c5cccnc5)n4)c3)cc(C(F)(F)F)c2)cn1 [Nilotinib HCl crystalline form T17, Nilotinib HCl]
[1]
  conversion to other forms when heated: does not convert to other forms when heated

## Cc1cn(-c2cc(NC(=O)c3ccc(C)c(Nc4nccc(-c5cccnc5)n4)c3)cc(C(F)(F)F)c2)cn1 [Nilotinib HCl form A, Nilotinib HCl]
[2]
  conversion to other polymorphs when heated: converted to other polymorphs

## Cc1cn(-c2cc(NC(=O)c3ccc(C)c(Nc4nccc(-c5cccnc5)n4)c3)cc(C(F)(F)F)c2)cn1 [Nilotinib HCl form B, Nilotinib HCl]
[3]
  solubility in IPA: not soluble in IPA
